Experimental data reported in EP0404945A1 (priority 1989, dated 1990).
Read-outs that look alike come from different tables or passages of the source.

Assays:
ascarid ovi = assay: animal or person; format: in vivo, pig.ascarid
houseflies [1] = assay: whole plant or invertebrate; details: Musca domestica; for mortality at 1 %: read-out: Death of flies, % Tests laboratory
[2] = test system: virus of influenza, type A, (H1N1); assay: microbe, parasite or virus in culture
Penicillium sporum = format: cell-based
Fusarium oxysporum = format: cell-based
Candida tropicalis = assay: microbe, parasite or virus in culture; format: cell-based
Alternaria radicina = format: cell-based
Venturia inaequalis = format: cell-based
Aspergillus niger = format: cell-based
Helminthosporum saturem = format: cell-based
Candida albicans = assay: microbe, parasite or virus in culture; format: cell-based
Virus of hepatitis B = assay: microbe, parasite or virus in culture; details: 0.5 h, read-out: Death of viruses (%) at 30 minutes exposure, Virus of hepatitis B
houseflies [3] = details: house fly, in vivo
Colibacillus = assay: microbe, parasite or virus in culture; format: cell-based; details: read-out: Efficiency of the preparation, % Colibacillus
[4] = test system: Infectant of poliomyelitis
Staphylococcus aureus = assay: microbe, parasite or virus in culture; format: cell-based; details: read-out: Efficiency of the preparation, % Staphylococcus aureus
[5] = 24 h, read-out: Death of ascarid ovi, % after 24 hours
[6] = 48 h, read-out: Death of ascarid ovi, % after 48 hours
[7] = 48 h, read-out: Death of flies, % after 48 hours
[8] = 72 h, read-out: Death of flies, % after 72 hours
[9] = H1N1, read-out: Virucidal activity of the preparation in respect of the virus of influenza, type A, %
[10] = 2 h, read-out: Death of test fungi, % to the control, Candida tropicalis 2 hrs
[11] = 20 h, read-out: Death of test fungi, % to the control, Candida tropicalis 20 hrs
[12] = 2 h, read-out: Death of test fungi, % to the control, Candida albicans 2 hrs
[13] = 20 h, read-out: Death of test fungi, % to the control, Candida albicans 20 hrs
[14] = read-out: Death of ascarid ovi, % Tests laboratory
[15] = 24 h, read-out: Death of flies, % after 24 hours
[16] = H1N1, 0.5 h, read-out: Death of viruses (%) at 30 minutes exposure, Virus of influenza A
[17] = 24 h, read-out: Death of ascarid ovi, % after 24 hrs
[18] = 72 h, read-out: Death of ascarid ovi, % after 72 hours

## O=[N+]([O-])c1ccc(C(O)C(CCl)NP(=O)(O)Oc2ccccc2)cc1 (centres unmarked) [Example 58]
Ascarid ovi; [5]
  killing at 2 %: 95.4%
Ascarid ovi; [6]
  killing at 2 %: 100%
Houseflies [1]; [7]
  mortality at 2 %: 72%
Houseflies [1]; [8]
  mortality at 2 %: 99%
[2]; [9]
  killing at 1 %: 83.4%
  killing at 2 %: 86%

## O=C1C(Cl)=C(Cl)C(=O)c2ccccc21 [Phygon, 2,3-dichloronaphtho-quinone-1,4, reference compound]
Penicillium sporum
  Mycelium growth inhibition, % to the control, Penicillium sporum: 100%
Fusarium oxysporum
  Mycelium growth inhibition, % to the control, Fusarium oxisporum: 58%
Candida tropicalis; [10]
  killing at 0.05 %: 76%
Candida tropicalis; [11]
  killing at 0.05 %: 100%
Alternaria radicina
  Mycelium growth inhibition, % to the control, Alternaria radicina: 94%
Venturia inaequalis
  Mycelium growth inhibition, % to the control, Venturia inaequalis: 98%
Aspergillus niger
  Mycelium growth inhibition, % to the control, Aspergillus niger: 100%
Helminthosporum saturem
  Mycelium growth inhibition, % to the control, Helminthosporum saturem: 92%
Candida albicans; [12]
  killing at 0.05 %: 68%
Candida albicans; [13]
  killing at 0.05 %: 100%

## O=[N+]([O-])c1ccc(C(Cl)C(CCl)NP(=O)(Nc2ccccc2)Nc2ccccc2)cc1 (centres unmarked) [Example 8, 1-para- . -nitrophenyl-1,3-dichloroisopropylamidophosphoric acid dianilide]
Ascarid ovi; [14]
  killing at 3 %: 100%
Houseflies [1]; [15]
  mortality at 3 %: 66.4%
Houseflies [1]; [8]
  mortality at 3 %: 98%
[2]; [16]
  killing at 1 %: 100%

## CCOP(=O)(NC(CCl)C(Cl)c1ccc([N+](=O)[O-])cc1)OCC (centres unmarked) [Example 14, 1-para-nitrophenyl-1,3--dichloropropanamidophosphoric acid diethyl ether]
Ascarid ovi; [17]
  killing at 3 %: 100%
Ascarid ovi; [6]
  killing at 3 %: 100%
Ascarid ovi; [18]
  killing at 3 %: 100%
[2]; [16]
  killing at 1 %: 90%

## O=[N+]([O-])c1ccc(C(O)C(CCl)NP(=O)(Nc2ccccc2)Nc2ccccc2)cc1 (centres unmarked) [Example 7, 1-para-nitrophenyl-1-hydroxy-3-chloroisopro-pylamidophosphoric acid dianilide]
Ascarid ovi; [14]
  killing at 3 %: 100%
Houseflies [1]; [15]
  mortality at 3 %: 55.1%
Houseflies [1]; [8]
  mortality at 3 %: 94%
[2]; [16]
  killing at 1 %: 100%

## O=S(=O)(NCl)c1ccccc1 [Known preparation]
Virus of hepatitis B
  killing at 1 %: 50%
Houseflies [1]; [15]
  mortality at 3 %: 86%
Houseflies [1]; [7]
  mortality at 2 %: 81%
Houseflies [1]; [8]
  mortality at 2 %: 84%
  mortality at 3 %: 92%
[2]; [16]
  killing at 1 %: 25%

## COP(=O)(NC(CCl)C(O)c1ccc([N+](=O)[O-])cc1)OC (centres unmarked) [Example 11, 1-para-nitrophenyl-1-chloro-3-propanolamidophosphoric acid dimethyl ether]
Ascarid ovi; [17]
  killing at 3 %: 100%
Ascarid ovi; [6]
  killing at 3 %: 100%
Ascarid ovi; [18]
  killing at 3 %: 100%
Houseflies [1]
  mortality at 1 %: 67.7%
Houseflies [3]
  Death of flies, % Tests laboratory: 72.7%
[2]; [16]
  killing at 1 %: 74%

## O=C(N[C@H](COP(=O)(NC(CCl)C(O)c1ccc([N+](=O)[O-])cc1)OC[C@@H](NC(=O)C(Cl)Cl)[C@H](O)c1ccc([N+](=O)[O-])cc1)[C@H](O)c1ccc([N+](=O)[O-])cc1)C(Cl)Cl (some centres unmarked) [Example 32]
Ascarid ovi; [14]
  killing at 3 %: 100%

## CNC(=S)S [Known ovocidal preparation (carbathion), sodium N-methyldithiocarbamate dihydrate, reference compound]
Ascarid ovi; [5]
  killing at 2 %: 60%
Ascarid ovi; [17]
  killing at 3 %: 100%
Ascarid ovi; [6]
  killing at 2 %: 80%
  killing at 3 %: 100%
Ascarid ovi; [14]
  killing at 3 %: 80%

## CCOP(=O)(NC(CCl)C(O)c1ccc([N+](=O)[O-])cc1)OCC (centres unmarked) [Example 13, 1-para-nitrophenyl-1-chloro-3-propanolamidophosphoric acid diethyl ether]
Ascarid ovi; [17]
  killing at 3 %: 100%
Ascarid ovi; [6]
  killing at 3 %: 100%
Ascarid ovi; [18]
  killing at 3 %: 100%
Houseflies [1]
  mortality at 1 %: 99.6%
[2]; [16]
  killing at 1 %: 90%

## O=[N+]([O-])c1ccc(C(O)C(CO)NP(=O)(O)O)cc1 (centres unmarked) [Example 1, 1-para-netrophenyl-1,3--propanediolamidophosphoric acid]
Penicillium sporum
  Mycelium growth inhibition, % to the control, Penicillium sporum: 58%
Fusarium oxysporum
  Mycelium growth inhibition, % to the control, Fusarium oxisporum: 68%
Candida tropicalis; [10]
  killing at 0.05 %: 96%
Candida tropicalis; [11]
  killing at 0.05 %: 100%
Alternaria radicina
  Mycelium growth inhibition, % to the control, Alternaria radicina: 75%
Colibacillus
  killing at 0.5 %: 100%
[4]
  Death of viruses (%) at 60 minutes exposure, Infectant of poliomyelitis: 40%
Staphylococcus aureus
  killing at 0.5 %: 80%
Venturia inaequalis
  Mycelium growth inhibition, % to the control, Venturia inaequalis: 32%
Aspergillus niger
  Mycelium growth inhibition, % to the control, Aspergillus niger: 99%
Ascarid ovi; [14]
  killing at 3 %: 100%
Helminthosporum saturem
  Mycelium growth inhibition, % to the control, Helminthosporum saturem: 54%
Candida albicans; [12]
  killing at 0.05 %: 98%
Candida albicans; [13]
  killing at 0.05 %: 100%

## O=[N+]([O-])c1ccc(C(Cl)C(CCl)NP(=O)(O)Nc2ccccc2)cc1 (centres unmarked) [Example 10, 1-para-nitrophenyl-1,3-dichloropropan--2-amidophosphoric acid monoanilide]
Ascarid ovi; [14]
  killing at 3 %: 100%
Houseflies [1]; [15]
  mortality at 3 %: 77%
Houseflies [1]; [8]
  mortality at 3 %: 99%
[2]; [16]
  killing at 1 %: 87%

## CCOP(=O)(O)NC(CCl)C(O)c1ccc([N+](=O)[O-])cc1 (centres unmarked) [Example 30]
Ascarid ovi; [14]
  killing at 3 %: 100%
Houseflies [1]; [7]
  mortality at 2 %: 42.8%
Houseflies [1]; [8]
  mortality at 2 %: 94%
[2]; [9]
  killing at 1 %: 71.2%
  killing at 2 %: 79%

## O=[N+]([O-])c1ccc(C(Cl)C(CCl)NP(=O)(Oc2ccccc2)Oc2ccccc2)cc1 (centres unmarked) [Example 6, 1-para-nitrophenyl-1,3-dichlorisopropylamidophosphoric acid diphenyl ether]
Ascarid ovi; [14]
  killing at 3 %: 100%
Houseflies [1]; [15]
  mortality at 3 %: 64.7%
Houseflies [1]; [8]
  mortality at 3 %: 98.6%
[2]; [16]
  killing at 1 %: 100%

## O=[N+]([O-])c1ccc(C(O)C(CCl)NP(=O)(O)Nc2ccccc2)cc1 (centres unmarked) [Example 9]
Ascarid ovi; [14]
  killing at 3 %: 100%
Houseflies [1]; [15]
  mortality at 3 %: 65%
Houseflies [1]; [8]
  mortality at 3 %: 96%
[2]; [16]
  killing at 1 %: 78%

## CCOP(=O)(O)NC(CO)C(O)c1ccc([N+](=O)[O-])cc1 (centres unmarked) [Example 29, 1-para-nitrophenyl-1,3-propanediolamidophos-phoric acid ethyl ether]
Ascarid ovi; [14]
  killing at 3 %: 100%
Houseflies [1]; [7]
  mortality at 2 %: 56%
Houseflies [1]; [8]
  mortality at 2 %: 92.3%
[2]; [9]
  killing at 1 %: 83.3%
  killing at 2 %: 86.7%

## CCOP(=O)(O)NC(CCl)C(Cl)c1ccc([N+](=O)[O-])cc1 (centres unmarked) [Example 31, 1-para-nitrophenyl-1,3-dichloropropanamidophosphor-ic acid ethyl ether]
Ascarid ovi; [14]
  killing at 3 %: 100%
Houseflies [1]; [7]
  mortality at 2 %: 44.2%
Houseflies [1]; [8]
  mortality at 2 %: 91.3%
[2]; [9]
  killing at 1 %: 36.9%
  killing at 2 %: 46.9%

## O=[N+]([O-])c1ccc(C(Cl)C(CCl)NP(=O)(O)Oc2ccccc2)cc1 (centres unmarked) [Example 59, 1-para-nitrophenyl-1,3-dichloropropane--2-amidophosphoric acid monophenyl ether]
Ascarid ovi; [5]
  killing at 2 %: 91.8%
Ascarid ovi; [6]
  killing at 2 %: 100%
Houseflies [1]; [7]
  mortality at 2 %: 60%
Houseflies [1]; [8]
  mortality at 2 %: 91.2%
[2]; [9]
  killing at 1 %: 92.3%
  killing at 2 %: 96.1%

## O=S(=O)(NCl)c1ccccc1 [Known bactericidal preparation, Sodium N-Chlorobenzenesulphamide, reference compound]
Colibacillus
  killing at 0.5 %: 100%
Staphylococcus aureus
  killing at 0.5 %: 100%
[2]; [9]
  killing at 1 %: 22%
  killing at 2 %: 28%

## COP(=O)(NC(CCl)C(Cl)c1ccc([N+](=O)[O-])cc1)OC (centres unmarked) [Example 12, 1-para-nitrophenyl--1,3-dichloropropanamidophosphoric acid dimethyl ether]
Ascarid ovi; [17]
  killing at 3 %: 100%
Ascarid ovi; [6]
  killing at 3 %: 100%
Ascarid ovi; [18]
  killing at 3 %: 100%
Houseflies [1]
  mortality at 1 %: 71.4%
[2]; [16]
  killing at 1 %: 85%

## O=[N+]([O-])c1ccc(C(O)C(CCl)NP(=O)(O)O)cc1 (centres unmarked) [Example 2, 1-para-nitrophenyl-1--chloro-3-propanolamidophosphoric acid]
Penicillium sporum
  Mycelium growth inhibition, % to the control, Penicillium sporum: 68%
Fusarium oxysporum
  Mycelium growth inhibition, % to the control, Fusarium oxisporum: 69%
Candida tropicalis; [10]
  killing at 0.05 %: 90%
Candida tropicalis; [11]
  killing at 0.05 %: 100%
Alternaria radicina
  Mycelium growth inhibition, % to the control, Alternaria radicina: 60%
Colibacillus
  killing at 0.5 %: 100%
[4]
  Death of viruses (%) at 60 minutes exposure, Infectant of poliomyelitis: 60%
Staphylococcus aureus
  killing at 0.5 %: 100%
Venturia inaequalis
  Mycelium growth inhibition, % to the control, Venturia inaequalis: 64%
Aspergillus niger
  Mycelium growth inhibition, % to the control, Aspergillus niger: 100%
Ascarid ovi; [14]
  killing at 3 %: 100%
Helminthosporum saturem
  Mycelium growth inhibition, % to the control, Helminthosporum saturem: 88%
Candida albicans; [12]
  killing at 0.05 %: 99%
Candida albicans; [13]
  killing at 0.05 %: 100%

## O=[N+]([O-])c1ccc(C(O)C(CCl)NP(=O)(Oc2ccccc2)Oc2ccccc2)cc1 (centres unmarked) [Example 5, diphenyl ether of 1-para-nitrophenyl-1--hydroxy-3-chloroisopropylamidophosphoric acid]
Ascarid ovi; [14]
  killing at 3 %: 100%
Houseflies [1]; [15]
  mortality at 3 %: 35.4%
Houseflies [1]; [8]
  mortality at 3 %: 96%
[2]; [16]
  killing at 1 %: 100%
